Data published in PMC9868654, “Discovery of a potent olaparib–chlorambucil hybrid inhibitor of PARP1 for the treatment of cancer” (Frontiers in Pharmacology, 2023).

Columns and labels:
PARP1 = PARP1 (Homo sapiens, UniProt P09874); assay: PARP1 enzyme inhibitory assay; assay type: biochemical; conditions: mean of three experiments
8226 cells = assay: In vitro antiproliferative assay (CCK-8); assay type: cell-based; conditions: 8226, without BRCA mutations; CCK-8, 72 h; mean of three
Procedure: (§1) The proliferation of cancer cells was tested by CCK-8 assay. Briefly, cells were seeded in 96-well plates at approximately 5 × 10^3 cells per well. The cells were treated with test compounds after 24 h of incubation. CCK-8 reagent ([…]) was added to each well after 72 h of incubation, and the cells were then incubated at 37°C for 4 h. The light absorbance at 450 nm was measured using an Opsys microplate reader (Dynex Technologies, Chantilly, VA, United States). Results are illustrated as percentage viability normalized to DMSO-treated control cells.

A549 cells = assay: In vitro antiproliferative assay (CCK-8); assay type: cell-based; conditions: Homo sapiens; A549, without BRCA mutations; CCK-8, 72 h; mean of three
Procedure: as §1

B16 cells = assay: In vitro antiproliferative assay (CCK-8); assay type: cell-based; conditions: Mus musculus; B16, without BRCA mutations; CCK-8, 72 h; mean of three
Procedure: as §1

CH151 cells = assay: In vitro antiproliferative assay (CCK-8); assay type: cell-based; conditions: CH151, without BRCA mutations; CCK-8, 72 h; mean of three
Procedure: as §1

Capan-1 cells = assay: In vitro antiproliferative assay (CCK-8); assay type: cell-based; conditions: Homo sapiens; Capan-1, BRCA-mutated; CCK-8, 72 h; mean of three
Procedure: as §1

HCC1937 cells = assay: In vitro antiproliferative assay (CCK-8); assay type: cell-based; conditions: Homo sapiens; HCC1937, BRCA-mutated; CCK-8, 72 h; mean of three
Procedure: as §1

Hela cells = assay: In vitro antiproliferative assay (CCK-8); assay type: cell-based; conditions: Homo sapiens, without BRCA mutations, CCK-8, 72 h, mean of three
Procedure: as §1

K562 cells = assay: In vitro antiproliferative assay (CCK-8); assay type: cell-based; conditions: Homo sapiens; K562, without BRCA mutations; CCK-8, 72 h; mean of three
Procedure: as §1

MCF-7 cells = assay: In vitro antiproliferative assay (CCK-8); assay type: cell-based; conditions: Homo sapiens, MCF7; MCF-7, without BRCA mutations; CCK-8, 72 h; mean of three
Procedure: as §1

MDA-MB-231 cells = assay: In vitro antiproliferative assay (CCK-8); assay type: cell-based; conditions: Homo sapiens; MDA-MB-231, without BRCA mutations; CCK-8, 72 h; mean of three
Procedure: as §1

MDA-MB-436 cells = assay: In vitro antiproliferative assay (CCK-8); assay type: cell-based; conditions: Homo sapiens; MDA-MB-436, BRCA-mutated; CCK-8, 72 h; mean of three
Procedure: as §1

Raji cells = assay: In vitro antiproliferative assay (CCK-8); assay type: cell-based; conditions: Homo sapiens, without BRCA mutations, CCK-8, 72 h, mean of three
Procedure: as §1

SKOV3 cells = assay: In vitro antiproliferative assay (CCK-8); assay type: cell-based; conditions: Homo sapiens, SK-OV-3; SKOV3, without BRCA mutations; CCK-8, 72 h; mean of three
Procedure: as §1

SW620 cells = assay: In vitro antiproliferative assay (CCK-8); assay type: cell-based; conditions: Homo sapiens, SW-620; SW620, without BRCA mutations; CCK-8, 72 h; mean of three
Procedure: as §1

U251 cells = assay: In vitro antiproliferative assay (CCK-8); assay type: cell-based; conditions: Homo sapiens, U-251; U251, without BRCA mutations; CCK-8, 72 h; mean of three
Procedure: as §1

U87 cells = assay: In vitro antiproliferative assay (CCK-8); assay type: cell-based; conditions: Homo sapiens, U-87 MG; U87, without BRCA mutations; CCK-8, 72 h; mean of three
Procedure: as §1

Chain of PARP1 (P09874 whole entry): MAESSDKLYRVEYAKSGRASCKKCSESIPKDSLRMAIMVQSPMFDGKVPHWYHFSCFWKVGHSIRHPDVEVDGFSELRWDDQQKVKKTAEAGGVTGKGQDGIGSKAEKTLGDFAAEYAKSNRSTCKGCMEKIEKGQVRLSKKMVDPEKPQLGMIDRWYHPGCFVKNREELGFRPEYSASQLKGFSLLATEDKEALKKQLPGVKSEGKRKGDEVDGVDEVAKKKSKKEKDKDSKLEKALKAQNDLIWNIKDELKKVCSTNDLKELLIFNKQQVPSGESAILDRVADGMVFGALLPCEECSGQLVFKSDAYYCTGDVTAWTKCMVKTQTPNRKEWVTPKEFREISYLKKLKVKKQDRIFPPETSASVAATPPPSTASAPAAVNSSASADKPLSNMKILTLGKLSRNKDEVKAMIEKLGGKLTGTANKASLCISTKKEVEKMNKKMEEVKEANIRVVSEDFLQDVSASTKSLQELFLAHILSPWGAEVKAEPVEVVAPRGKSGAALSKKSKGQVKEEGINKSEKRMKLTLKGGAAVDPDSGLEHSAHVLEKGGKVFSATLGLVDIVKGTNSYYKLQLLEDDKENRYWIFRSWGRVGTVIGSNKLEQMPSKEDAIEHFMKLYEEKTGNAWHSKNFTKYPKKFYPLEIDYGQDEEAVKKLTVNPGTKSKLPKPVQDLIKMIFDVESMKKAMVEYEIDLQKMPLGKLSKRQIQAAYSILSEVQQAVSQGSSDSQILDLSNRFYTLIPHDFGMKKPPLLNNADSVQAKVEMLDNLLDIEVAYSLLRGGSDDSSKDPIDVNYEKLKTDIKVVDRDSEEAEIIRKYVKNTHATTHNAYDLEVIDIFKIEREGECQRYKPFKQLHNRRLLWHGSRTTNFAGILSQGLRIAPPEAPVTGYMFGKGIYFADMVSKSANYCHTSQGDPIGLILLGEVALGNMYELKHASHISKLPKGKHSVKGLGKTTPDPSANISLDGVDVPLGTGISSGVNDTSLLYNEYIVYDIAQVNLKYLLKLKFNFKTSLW

NC(=O)C1CCN(Cc2cc(Cc3n[nH]c(=O)c4ccccc34)ccc2F)CC1 [A14, 1-(2-Fluoro-5-((4-oxo-3,4-dihydrophthalazin-1-yl)methyl)benzyl)piperidine-4-carboxamide]
IC50 (PARP1; Table 1, A series): > 50 nM

O=c1[nH]nc(Cc2ccc(F)c(CN3CCC(N4CCCCC4)CC3)c2)c2ccccc12 [A16, 4-(3-([1,4′-Bipiperidin]-1′-ylmethyl)-4-fluorobenzyl)phthalazin-1(2H)-one]
IC50 (PARP1; Table 1, A series): > 50 nM

CCCCCCNNC(=O)c1cc(Cc2n[nH]c(=O)c3ccccc23)ccc1F [B6, 2-Fluoro-N′-hexyl-5-((4-oxo-3,4-dihydrophthalazin-1-yl)methyl)benzohydrazide]
IC50 (PARP1; Table 2, B and C series): 9.4 ± 0.8 nM

O=C(c1ccc(F)cc1)N1CCN(Cc2cc(Cc3n[nH]c(=O)c4ccccc34)ccc2F)CC1 [A1, 4-(4-Fluoro-3-((4-(4-fluorobenzoyl)piperazin-1-yl)methyl)benzyl)phthalazin-1(2H)-one]
IC50 (PARP1; Table 1, A series): 31.2 ± 2.4 nM

O=C(C1CC1)N1CCN(Cc2cc(Cc3n[nH]c(=O)c4ccccc34)ccc2F)CC1 [A21, 4-(3-((4-(Cyclopropanecarbonyl)piperazin-1-yl)methyl)-4-fluorobenzyl)phthalazin-1(2H)-one]
IC50 (PARP1; Table 1, A series): 8.4 ± 0.4 nM

CCCCNNC(=O)c1cc(Cc2n[nH]c(=O)c3ccccc23)ccc1F [B3, N′-butyl-2-fluoro-5-((4-oxo-3,4-dihydrophthalazin-1-yl)methyl)benzohydrazide]
IC50 (PARP1; Table 2, B and C series): 2.8 ± 0.1 nM
IC50 (8226 cells): > 100000 nM
IC50 (A549 cells): > 100000 nM
IC50 (B16 cells): > 100000 nM
IC50 (CH151 cells): > 100000 nM
IC50 (Capan-1 cells): > 1000 nM
IC50 (HCC1937 cells): > 1000 nM
IC50 (Hela cells): > 100000 nM
IC50 (K562 cells): > 20000 nM
IC50 (MCF-7 cells): > 100000 nM
IC50 (MDA-MB-231 cells): > 100000 nM
IC50 (MDA-MB-436 cells): > 1000 nM
IC50 (Raji cells): > 100000 nM
IC50 (SKOV3 cells): > 100000 nM
IC50 (SW620 cells): > 100000 nM
IC50 (U251 cells): > 100000 nM
IC50 (U87 cells): > 100000 nM

O=c1[nH]nc(Cc2ccc(F)c(CN3CCC(Cc4ccccc4)CC3)c2)c2ccccc12 [A18, 4-(3-((4-Benzylpiperidin-1-yl)methyl)-4-fluorobenzyl)phthalazin-1(2H)-one]
IC50 (PARP1; Table 1, A series): > 50 nM

O=C(c1ccc2c(c1)OCO2)N1CCN(Cc2cc(Cc3n[nH]c(=O)c4ccccc34)ccc2F)CC1 [A20, 4-(3-((4-(Benzo[d][1,3]dioxole-5-carbonyl)piperazin-1-yl)methyl)-4-fluorobenzyl)phthalazin-1(2H)-one]
IC50 (PARP1; Table 1, A series): 12.6 ± 0.9 nM

O=C(c1ccccc1Cl)N1CCN(Cc2cc(Cc3n[nH]c(=O)c4ccccc34)ccc2F)CC1 [A7, 4-(3-((4-(2-Chlorobenzoyl)piperazin-1-yl)methyl)-4-fluorobenzyl)phthalazin-1(2H)-one]
IC50 (PARP1; Table 1, A series): 24.6 ± 2.1 nM

O=C(c1cccc(Br)c1)N1CCN(Cc2cc(Cc3n[nH]c(=O)c4ccccc34)ccc2F)CC1 [A8, 4-(3-((4-(3-Bromobenzoyl)piperazin-1-yl)methyl)-4-fluorobenzyl)phthalazin-1(2H)-one]
IC50 (PARP1; Table 1, A series): 22.5 ± 2.1 nM

COC(=O)C1CCN(Cc2cc(Cc3n[nH]c(=O)c4ccccc34)ccc2F)CC1 [A17, Methyl1-(2-fluoro-5-((4-oxo-3,4-dihydrophthalazin-1-yl)methyl)benzyl)piperidine-4-carboxylate]
IC50 (PARP1; Table 1, A series): > 50 nM

O=C(c1cccc(C(F)(F)F)c1)N1CCN(Cc2cc(Cc3n[nH]c(=O)c4ccccc34)ccc2F)CC1 [A6, 4-(4-Fluoro-3-((4-(3-(trifluoromethyl)benzoyl)piperazin-1-yl)methyl)benzyl)phthalazin-1(2H)-one]
IC50 (PARP1; Table 1, A series): > 50 nM

O=C(c1ccccc1C(F)(F)F)N1CCN(Cc2cc(Cc3n[nH]c(=O)c4ccccc34)ccc2F)CC1 [A5, 4-(4-Fluoro-3-((4-(2-(trifluoromethyl)benzoyl)piperazin-1-yl)methyl)benzyl)phthalazin-1(2H)-one]
IC50 (PARP1; Table 1, A series): 33.2 ± 3.1 nM

CC(C)CNNC(=O)c1cc(Cc2n[nH]c(=O)c3ccccc23)ccc1F [B4, 2-Fluoro-N′-isobutyl-5-((4-oxo-3,4-dihydrophthalazin-1-yl)methyl)benzohydrazide]
IC50 (PARP1; Table 2, B and C series): 11.8 ± 1.3 nM

O=C(c1ccc(C(F)(F)F)cc1)N1CCN(Cc2cc(Cc3n[nH]c(=O)c4ccccc34)ccc2F)CC1 [A4, 4-(4-Fluoro-3-((4-(4-(trifluoromethyl)benzoyl)piperazin-1-yl)methyl)benzyl)phthalazin-1(2H)-one]
IC50 (PARP1; Table 1, A series): 42.2 ± 4.1 nM

O=C(c1ccccc1)N1CCN(Cc2cc(Cc3n[nH]c(=O)c4ccccc34)ccc2F)CC1 [A12, 4-(3-((4-Benzoylpiperazin-1-yl)methyl)-4-fluorobenzyl)phthalazin-1(2H)-one]
IC50 (PARP1; Table 1, A series): > 50 nM

O=C(c1ccccc1F)N1CCN(Cc2cc(Cc3n[nH]c(=O)c4ccccc34)ccc2F)CC1 [A2, 4-(4-Fluoro-3-((4-(2-fluorobenzoyl)piperazin-1-yl)methyl)benzyl)phthalazin-1(2H)-one]
IC50 (PARP1; Table 1, A series): 29.4 ± 2.2 nM

O=C(C1CCC(F)(F)CC1)N1CCN(Cc2cc(Cc3n[nH]c(=O)c4ccccc34)ccc2F)CC1 [A22, 4-(3-((4-(4,4-Difluorocyclohexane-1-carbonyl)piperazin-1-yl)methyl)-4-fluorobenzyl) phthalazin-1(2H)-one]
IC50 (PARP1; Table 1, A series): 9.3 ± 0.3 nM

Cc1ccccc1C(=O)N1CCN(Cc2cc(Cc3n[nH]c(=O)c4ccccc34)ccc2F)CC1 [A9, 4-(4-Fluoro-3-((4-(2-methylbenzoyl)piperazin-1-yl)methyl)benzyl)phthalazin-1(2H)-one]
IC50 (PARP1; Table 1, A series): 12.6 ± 1.1 nM

O=C(c1ccc(N(CCCl)CCCl)cc1)N1CCN(C(=O)c2cc(Cc3n[nH]c(=O)c4ccccc34)ccc2F)CC1 [C1, 4-(3-(4-(4-(Bis(2-chloroethyl)amino)benzoyl)piperazine-1-carbonyl)-4-fluorobenzyl) phthalazin-1(2H)-one]
IC50 (PARP1; Table 2, B and C series): 1.2 ± 0.11 nM
IC50 (8226 cells): > 100000 nM
IC50 (A549 cells): 14100 ± 1100 nM
IC50 (B16 cells): > 100000 nM
IC50 (CH151 cells): > 100000 nM
IC50 (Capan-1 cells): 105 ± 10 nM
IC50 (HCC1937 cells): 360 ± 20 nM
IC50 (Hela cells): > 100000 nM
IC50 (K562 cells): > 20000 nM
IC50 (MCF-7 cells): > 100000 nM
IC50 (MDA-MB-231 cells): > 100000 nM
IC50 (MDA-MB-436 cells): 18 ± 2 nM
IC50 (Raji cells): > 100000 nM
IC50 (SKOV3 cells): > 100000 nM
IC50 (SW620 cells): > 100000 nM
IC50 (U251 cells): > 100000 nM
IC50 (U87 cells): > 100000 nM

COc1ccccc1C(=O)N1CCN(Cc2cc(Cc3n[nH]c(=O)c4ccccc34)ccc2F)CC1 [A11, 4-(4-Fluoro-3-((4-(2-methoxybenzoyl)piperazin-1-yl)methyl)benzyl)phthalazin-1(2H)-one]
IC50 (PARP1; Table 1, A series): 29.4 ± 2.3 nM

O=c1[nH]nc(Cc2ccc(F)c(CN3CCN(Cc4ccc5c(c4)OCO5)CC3)c2)c2ccccc12 [A15, 4-(3-((4-(Benzo[d][1,3]dioxol-5-ylmethyl)piperazin-1-yl)methyl)-4-fluorobenzyl)phthalazin-1(2H)-one]
IC50 (PARP1; Table 1, A series): > 50 nM

CCCCCNNC(=O)c1cc(Cc2n[nH]c(=O)c3ccccc23)ccc1F [B5, 2-Fluoro-5-((4-oxo-3,4-dihydrophthalazin-1-yl)methyl)-N′-pentylbenzohydrazide]
IC50 (PARP1; Table 2, B and C series): 5.2 ± 0.4 nM

COc1ccc(C(=O)N2CCN(Cc3cc(Cc4n[nH]c(=O)c5ccccc45)ccc3F)CC2)cc1 [A13, 4-(4-Fluoro-3-((4-(4-methoxybenzoyl)piperazin-1-yl)methyl)benzyl)phthalazin-1(2H)-one]
IC50 (PARP1; Table 1, A series): > 50 nM

O=C(c1cccc(F)c1)N1CCN(Cc2cc(Cc3n[nH]c(=O)c4ccccc34)ccc2F)CC1 [A3, 4-(4-Fluoro-3-((4-(3-fluorobenzoyl)piperazin-1-yl)methyl)benzyl)phthalazin-1(2H)-one]
IC50 (PARP1; Table 1, A series): 17.6 ± 1.3 nM

O=C(C1CCCCC1)N1CCN(Cc2cc(Cc3n[nH]c(=O)c4ccccc34)ccc2F)CC1 [A23, 4-(3-((4-(Cyclohexanecarbonyl)piperazin-1-yl)methyl)-4-fluorobenzyl)phthalazin-1(2H)-one]
IC50 (PARP1; Table 1, A series): 10.1 ± 0.6 nM

CCc1ccc(C(=O)N2CCN(Cc3cc(Cc4n[nH]c(=O)c5ccccc45)ccc3F)CC2)cc1 [A10, 4-(3-((4-(4-Ethylbenzoyl)piperazin-1-yl)methyl)-4-fluorobenzyl)phthalazin-1(2H)-one]
IC50 (PARP1; Table 1, A series): 21.4 ± 1.4 nM
